Laboratory results from paper PMC6593427, “DUckCov: a Dynamic Undocking‐Based Virtual Screening Protocol for Covalent Binders” (Chemmedchem, 2019).

Assays:
Assay type in all cases: biochemical
JAK3 = target: T1, JAK3 (Homo sapiens, UniProt P52333); assay: Z'-LYTE FRET kinase assay, 10-point titration
T1 construct: commercial Z'-LYTE kinase assay (Life Technologies)
T1 sequence (P52333 1-1124): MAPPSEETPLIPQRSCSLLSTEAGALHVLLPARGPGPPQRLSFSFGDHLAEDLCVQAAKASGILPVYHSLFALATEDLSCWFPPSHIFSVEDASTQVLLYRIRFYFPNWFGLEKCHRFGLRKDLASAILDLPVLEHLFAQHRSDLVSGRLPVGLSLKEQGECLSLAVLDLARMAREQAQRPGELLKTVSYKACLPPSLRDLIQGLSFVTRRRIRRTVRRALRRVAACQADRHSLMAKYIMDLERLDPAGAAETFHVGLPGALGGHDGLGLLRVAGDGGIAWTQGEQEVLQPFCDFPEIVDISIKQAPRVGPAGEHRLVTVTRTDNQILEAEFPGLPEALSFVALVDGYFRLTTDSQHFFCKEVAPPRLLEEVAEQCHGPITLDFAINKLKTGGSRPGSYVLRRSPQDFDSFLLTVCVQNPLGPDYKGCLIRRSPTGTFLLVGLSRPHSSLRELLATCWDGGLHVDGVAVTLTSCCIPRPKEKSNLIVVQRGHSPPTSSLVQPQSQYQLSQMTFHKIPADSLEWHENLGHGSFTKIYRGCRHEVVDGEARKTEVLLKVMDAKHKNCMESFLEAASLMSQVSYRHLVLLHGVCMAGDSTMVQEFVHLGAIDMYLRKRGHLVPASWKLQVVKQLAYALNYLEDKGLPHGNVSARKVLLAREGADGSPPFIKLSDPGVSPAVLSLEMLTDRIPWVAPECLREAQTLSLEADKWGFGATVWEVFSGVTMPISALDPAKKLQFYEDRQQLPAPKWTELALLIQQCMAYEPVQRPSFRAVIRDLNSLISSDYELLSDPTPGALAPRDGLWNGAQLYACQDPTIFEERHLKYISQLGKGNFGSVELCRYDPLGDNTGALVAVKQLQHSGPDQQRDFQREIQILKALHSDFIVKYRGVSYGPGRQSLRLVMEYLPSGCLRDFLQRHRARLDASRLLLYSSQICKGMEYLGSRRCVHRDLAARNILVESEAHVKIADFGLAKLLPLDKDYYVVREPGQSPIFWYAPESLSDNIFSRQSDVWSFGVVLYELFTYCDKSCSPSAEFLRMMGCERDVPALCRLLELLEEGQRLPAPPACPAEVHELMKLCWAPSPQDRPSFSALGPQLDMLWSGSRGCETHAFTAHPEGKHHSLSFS

JAK2 = JAK2 (Homo sapiens, UniProt O60674); assay: kinase inhibition assay
JAK1 = JAK1 (Homo sapiens, UniProt P23458); assay: kinase inhibition assay
JAK1, sequence (P23458 whole entry): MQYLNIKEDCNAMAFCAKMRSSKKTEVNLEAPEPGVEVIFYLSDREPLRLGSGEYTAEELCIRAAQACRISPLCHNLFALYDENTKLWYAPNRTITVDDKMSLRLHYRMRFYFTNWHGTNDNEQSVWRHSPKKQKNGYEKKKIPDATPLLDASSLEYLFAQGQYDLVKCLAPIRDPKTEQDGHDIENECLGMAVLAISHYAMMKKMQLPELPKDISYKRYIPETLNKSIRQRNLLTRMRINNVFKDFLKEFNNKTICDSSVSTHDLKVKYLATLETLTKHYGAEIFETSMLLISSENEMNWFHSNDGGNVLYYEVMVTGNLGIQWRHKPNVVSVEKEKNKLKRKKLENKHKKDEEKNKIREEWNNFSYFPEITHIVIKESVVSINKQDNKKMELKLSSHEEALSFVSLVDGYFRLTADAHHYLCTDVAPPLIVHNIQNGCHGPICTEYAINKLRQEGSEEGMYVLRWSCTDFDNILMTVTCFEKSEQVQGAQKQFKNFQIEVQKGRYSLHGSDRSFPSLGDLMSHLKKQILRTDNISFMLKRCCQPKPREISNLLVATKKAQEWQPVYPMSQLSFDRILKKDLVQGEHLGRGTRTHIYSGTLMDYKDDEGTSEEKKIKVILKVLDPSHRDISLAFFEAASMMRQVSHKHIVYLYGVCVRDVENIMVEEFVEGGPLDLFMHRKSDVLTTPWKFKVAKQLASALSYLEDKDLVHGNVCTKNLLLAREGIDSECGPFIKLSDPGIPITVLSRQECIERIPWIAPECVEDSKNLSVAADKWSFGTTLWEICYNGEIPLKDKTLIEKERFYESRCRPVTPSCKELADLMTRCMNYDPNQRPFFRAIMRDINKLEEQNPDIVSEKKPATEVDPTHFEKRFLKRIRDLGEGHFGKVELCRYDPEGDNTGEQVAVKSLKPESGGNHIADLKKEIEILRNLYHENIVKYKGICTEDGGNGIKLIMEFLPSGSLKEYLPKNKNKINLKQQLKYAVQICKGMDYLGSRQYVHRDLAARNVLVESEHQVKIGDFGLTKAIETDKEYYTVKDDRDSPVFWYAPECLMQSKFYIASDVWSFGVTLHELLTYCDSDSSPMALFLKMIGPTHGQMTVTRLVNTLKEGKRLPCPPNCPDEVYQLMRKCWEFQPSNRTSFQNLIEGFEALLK

JAK2, sequence (O60674 whole entry): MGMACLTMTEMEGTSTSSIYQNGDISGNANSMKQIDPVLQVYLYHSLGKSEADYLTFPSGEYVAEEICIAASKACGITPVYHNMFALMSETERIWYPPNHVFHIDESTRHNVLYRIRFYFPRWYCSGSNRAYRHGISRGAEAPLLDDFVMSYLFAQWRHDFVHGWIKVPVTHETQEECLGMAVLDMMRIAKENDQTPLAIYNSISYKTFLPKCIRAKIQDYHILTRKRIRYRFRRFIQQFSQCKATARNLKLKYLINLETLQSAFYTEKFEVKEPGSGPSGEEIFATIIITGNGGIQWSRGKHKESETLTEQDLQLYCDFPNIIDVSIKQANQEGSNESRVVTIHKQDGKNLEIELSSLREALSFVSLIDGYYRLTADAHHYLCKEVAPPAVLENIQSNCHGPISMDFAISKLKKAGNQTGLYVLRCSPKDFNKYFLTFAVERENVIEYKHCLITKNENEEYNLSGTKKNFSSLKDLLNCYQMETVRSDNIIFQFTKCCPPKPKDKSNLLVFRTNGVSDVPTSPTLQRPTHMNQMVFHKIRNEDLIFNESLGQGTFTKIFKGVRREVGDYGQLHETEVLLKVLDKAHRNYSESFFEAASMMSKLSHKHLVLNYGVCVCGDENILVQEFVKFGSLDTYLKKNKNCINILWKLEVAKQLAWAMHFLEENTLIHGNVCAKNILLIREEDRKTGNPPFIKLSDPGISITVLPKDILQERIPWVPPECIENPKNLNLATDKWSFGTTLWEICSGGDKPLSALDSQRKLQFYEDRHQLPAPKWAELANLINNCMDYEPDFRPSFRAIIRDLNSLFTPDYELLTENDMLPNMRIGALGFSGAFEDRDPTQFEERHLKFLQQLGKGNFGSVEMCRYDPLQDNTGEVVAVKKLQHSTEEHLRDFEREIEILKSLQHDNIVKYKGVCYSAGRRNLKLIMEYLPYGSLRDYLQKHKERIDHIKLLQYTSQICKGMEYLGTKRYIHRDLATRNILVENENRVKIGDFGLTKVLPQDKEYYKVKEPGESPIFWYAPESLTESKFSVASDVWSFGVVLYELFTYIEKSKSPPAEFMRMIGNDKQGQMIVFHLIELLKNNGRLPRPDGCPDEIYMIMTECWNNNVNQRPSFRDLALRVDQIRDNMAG

## C=CC(=O)N1C[C@H](COc2nc(Nc3cnn(C)c3)nc3[nH]cc(Cl)c23)[C@@H](OC)C1 [compound 1, PF-06459988]
JAK3
  IC50: 5 nM

## C=CC(=O)Nc1cc(NC(=O)c2n[nH]c3ccccc23)ccc1F [compound 5]
JAK3
  IC50: 389 nM
JAK2
  inhibition at 10 µM: 62%
JAK1
  inhibition at 10 µM: 18%

## C=CC(=O)Nc1cc(NC(=O)c2n[nH]c3c2CCC3)ccc1F [compound 9]
JAK3
  IC50: 1270 nM
